Experiment [1] has as its target T1, MAO B (Rattus norvegicus, UniProt P19643).
T1 construct: determined in dilute rat brain homogenate; from tissue; host or cells: rat brain homogenate
T1 sequence (P19643 1-520): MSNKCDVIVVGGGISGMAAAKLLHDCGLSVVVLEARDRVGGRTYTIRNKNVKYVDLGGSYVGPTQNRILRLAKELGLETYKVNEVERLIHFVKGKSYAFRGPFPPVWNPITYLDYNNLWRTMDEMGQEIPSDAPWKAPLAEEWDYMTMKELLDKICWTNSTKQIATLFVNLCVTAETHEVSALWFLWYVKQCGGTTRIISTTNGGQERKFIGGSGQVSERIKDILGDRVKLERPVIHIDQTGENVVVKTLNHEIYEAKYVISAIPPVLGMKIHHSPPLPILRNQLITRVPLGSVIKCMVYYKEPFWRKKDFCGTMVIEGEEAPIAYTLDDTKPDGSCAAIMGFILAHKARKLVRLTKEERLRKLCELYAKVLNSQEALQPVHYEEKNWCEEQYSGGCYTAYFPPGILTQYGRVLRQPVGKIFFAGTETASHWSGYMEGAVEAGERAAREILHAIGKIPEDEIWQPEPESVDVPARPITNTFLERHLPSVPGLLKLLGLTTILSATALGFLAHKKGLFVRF
As to the kind of experiment: MAO B inhibition in dilute rat brain homogenate (14C substrate, 20 min at 37° C). Format: biochemical. The following applies: for IC50 ratio MAO A / MAO B: quotient of IC50 MAO A and IC50 MAO B (selectivity for MAO B), 20 min; for IC50: rat brain homogenate, 14C-phenylethylamine or 14C-tryptamine 0.4 μmol/l, 20 minutes at 37° C, logit-log regression. The method, then:
(§1) The MAO-inhibiting activity of the novel compounds can be determined using standard methods. […] The mixture was incubated for 20 minutes at 37° C.
(§2) The blank value was determined in similar mixtures with an incubation time of t=0 min.
(§3) From the inhibitory values determined at the various inhibitor concentrations against a control, the mean inhibitory concentration (IC50) was calculated by linear regression following logit-log transformation.

The target of experiment [2] is T2, MAO A (Rattus norvegicus, UniProt P21396).
T2 construct: determined in dilute rat brain homogenate; from tissue; host or cells: rat brain homogenate
T2 sequence (P21396 1-526): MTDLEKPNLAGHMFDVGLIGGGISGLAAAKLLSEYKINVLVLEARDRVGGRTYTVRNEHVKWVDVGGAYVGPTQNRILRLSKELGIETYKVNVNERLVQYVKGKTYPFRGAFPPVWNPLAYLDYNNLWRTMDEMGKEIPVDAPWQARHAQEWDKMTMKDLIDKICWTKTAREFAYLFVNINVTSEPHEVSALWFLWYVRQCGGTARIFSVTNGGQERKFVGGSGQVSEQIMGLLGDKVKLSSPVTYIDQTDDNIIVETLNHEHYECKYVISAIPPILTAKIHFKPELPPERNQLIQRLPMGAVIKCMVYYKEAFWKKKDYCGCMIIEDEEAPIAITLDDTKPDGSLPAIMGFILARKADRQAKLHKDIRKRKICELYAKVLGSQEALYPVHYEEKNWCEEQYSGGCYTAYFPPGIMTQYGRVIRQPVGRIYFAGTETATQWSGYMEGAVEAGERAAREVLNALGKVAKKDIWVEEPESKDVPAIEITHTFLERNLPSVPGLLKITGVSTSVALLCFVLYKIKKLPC
The experiment in a line: MAO A inhibition in dilute rat brain homogenate (14C substrate, 20 min at 37° C). Particulars: 14C-phenylethylamine or 14C-tryptamine 0.4 μmol/l, logit-log regression. It is filed as biochemical. The method, then:
as §1, §2, §3

SMILES strings stand for the structures.

As to `Cc1nnc(COc2ccc3c(C)c(C)c(=O)oc3c2)o1` [Example 1, 3,4-Dimethyl-7-(2-methyl-1,3,4-oxadiazol-5-yl)-methoxycoumarin], the “IC50 ratio MAO A / MAO B” value in experiment [1] came to 370.
On to `Cc1nnc(COc2ccc3c(C)c(C)c(=O)oc3c2)s1` [Example 2, 3,4-Dimethyl-7-(2-methyl-1,3,4-thiadiazol-5-yl)-methoxycoumarin], for which the midpoint of inhibition in experiment [2], the IC50, lay at 3.6 µM. Moreover, in experiment [1], the “IC50 ratio MAO A / MAO B” value amounted to 1200 and inhibition was half-maximal at 0.003 µM (IC50).
For `Cc1cc(COc2ccc3c(C)c(C)c(=O)oc3c2)on1` [Example 3, 3,4-Dimethyl-7-(3-methylisoxazol-5-yl)-methoxycoumarin] the same measures were 1.5 µM, 710 and 0.0021 µM.
As for `CCCc1cc(COc2ccc3c(C)c(C)c(=O)oc3c2)on1` [Example 4, 3,4-Dimethyl-7-(3-n-propylisoxazol-5-yl)-methoxycoumarin], the IC50 in experiment [2] was roughly 10 µM. In addition, in experiment [1], the “IC50 ratio MAO A / MAO B” value was ~ 5900 and the IC50 is 0.0017 µM.
The compound `COCc1cc(COc2ccc3c(C)c(C)c(=O)oc3c2)on1` [Example 6, 7-(3-Methoxymethylisoxazol-5-yl)-methoxy-3,4-dimethylcoumarin] showed an IC50 in experiment [2] of roughly 10 µM. For the same compound, in experiment [1], the “IC50 ratio MAO A / MAO B” value is recorded as ~ 2200 and the midpoint of inhibition, the IC50, lay at 0.0046 µM.
In the same order, the values of `CCc1nnc(COc2ccc3c(C)c(C)c(=O)oc3c2)o1` [Example 7, 7-(2-Ethyl-1,3,4-oxadiazol-5-yl)-methoxy-3,4-dimethylcoumarin] are roughly 10 µM, ~ 900 and 0.011 µM.
In the same order, the values of `Cc1c(Cl)c(=O)oc2cc(OCc3csc(C4CC4)n3)c(Cl)cc12` [Example 10, 3,6-Dichloro-4-methyl-7-(2-cyclopropylthiazol-4-yl)-methoxycoumarin] are greater than 10 µM, greater than 4500 and 0.0022 µM.
For `Cc1nnc(COc2ccc3cc(C)c(=O)oc3c2)s1` [Example 13, 3-Methyl-7-(2-methyl-1,3,4-thiadiazol-5-yl)-methoxycoumarin] the same measures were greater than 10 µM, greater than 667 and 0.015 µM.
`Cc1c(C)c2ccc(OCC3COc4ccccc4O3)cc2oc1=O` (stereo not drawn) [Example 21, 7-(Benzodioxan-2-yl)-methoxy-3,4-dimethylcoumarin]: the IC50 in experiment [2] was roughly 10 µM; in experiment [1], 0.0077 µM. Further, the “IC50 ratio MAO A / MAO B” value in experiment [1] is recorded as ~ 1300.
For `Cc1c(C)c2ccc(OCc3coc(Cc4ccccc4)c3)cc2oc1=O` [Example 22, 7-(2-Benzylfuran-4-yl)-methoxy-3,4-dimethylcoumarin] the same measures were greater than 10 µM, 0.0016 µM and greater than 6250.
For `Cc1nc(COc2ccc3c(C)c(C)c(=O)oc3c2)cs1` [Example 24, 3,4-Dimethyl-7-(2-methylthiazol-4-yl)-methoxycoumarin] the same measures were roughly 10 µM, 0.003 µM and ~ 3300.
For `Cc1c(C)c2ccc(OCc3coc(Cc4cccc(Cl)c4)c3)cc2oc1=O` [Example 25, 7-[2-(3-Chlorobenzyl)-furan-4-yl]-methoxy-3,4-dimethylcoumarin] the same measures were greater than 10 µM, 0.017 µM and greater than 590.
With `Cc1c(C)c2ccc(OCc3nc(C(C)C)no3)cc2oc1=O` [Example 26, 7-(3-Iospropyl-1,2,4-oxadiazol-5-yl)-methoxy-3,4-dimethylcoumarin], in experiment [1], the “IC50 ratio MAO A / MAO B” value is listed as greater than 7700 and the IC50 was 0.0013 µM.
Consider `Cc1c(C)c2ccc(OCc3cc(C(C)C)n(C)n3)cc2oc1=O` [Example 29, 7-(5-Isopropyl-1-methylpyrazol-3-yl)-methoxy-3,4-dimethylcoumarin], for which, in experiment [2], the IC50 is greater than 10 µM. Also, in experiment [1], the “IC50 ratio MAO A / MAO B” value is greater than 4500 and it took 0.0022 µM to reach half-maximal inhibition (IC50).
Consider `Cc1nnc(COc2ccc3c(C)c(Cl)c(=O)oc3c2)s1` [Example 30, 3-Chloro-4-methyl-7-(2-methyl-1,3,4-thiadiazol-5-yl)-methoxycoumarin], for which the IC50 in experiment [2] was greater than 10 µM. For the same compound, in experiment [1], the “IC50 ratio MAO A / MAO B” value was greater than 1700 and the IC50 came to 0.0057 µM.
In the same order, the values of `Cc1nnc(COc2ccc3c4c(c(=O)oc3c2)CCCC4)s1` [Example 32, 3,4-Tetramethylen-7-(2-methyl-1,3,4-thiadiazol-5-yl)-methoxycoumarin] are greater than 10 µM, greater than 1400 and 0.0071 µM.
In the same order, the values of `Cc1c(C)c2ccc(OCc3cc(C(C)C)no3)cc2oc1=O` [Example 33, 7-(3-Isopropylisoxazol-5-yl)-methoxy-3,4-dimethylcoumarin] are roughly 6 µM, ~ 8200 and 0.00073 µM.
In the same order, the values of `Cc1c(C)c2ccc(OCc3cc(CC(C)C)no3)cc2oc1=O` [Example 34, 7-(3-Isobutylisoxazol-5-yl)-methoxy-3,4-dimethylcoumarin] are roughly 10 µM, ~ 4500 and 0.0022 µM.
In turn, `Cc1c(C)c2ccc(OCc3cc(C(C)(C)C)no3)cc2oc1=O` [Example 35, 7-(3-tert-Butylisoxazol-5-yl)-methoxy-3,4-dimethylcoumarin] displayed an IC50 in experiment [2] greater than 10 µM. In experiment [1], the “IC50 ratio MAO A / MAO B” value is greater than 11000 and 0.00092 µM corresponded to half-maximal inhibition (IC50).
As to `Cc1ccc(COc2ccc3c(C)c(C)c(=O)oc3c2)s1` [Example 42, 3,4-Dimethyl-7-(2-methylthiophen-5-yl)-methoxycoumarin], the IC50 worked out at 0.35 µM in experiment [2] and 0.00051 µM in experiment [1]. For the same compound, in experiment [1], the “IC50 ratio MAO A / MAO B” value is listed as 680.
For the compound `Cc1c(C)c2ccc(OCc3nc(C4CC4)no3)cc2oc1=O` [Example 44, 3,4-Dimethyl-7-(3-cyclopropyl-1,2,4-oxadiazol-5-yl)-methoxycoumarin], the IC50 in experiment [2] was roughly 7 µM. Besides, in experiment [1], the “IC50 ratio MAO A / MAO B” value is ~ 5800 and 0.0012 µM corresponded to half-maximal inhibition (IC50).
For `Cc1ccsc1COc1ccc2c(C)c(C)c(=O)oc2c1` [Example 45, 3,4-Dimethyl-7-(3-methylthiophen-2-yl)-methoxycoumarin] the same measures were 0.23 µM, 450 and 0.00051 µM.
As for `Cc1noc(COc2ccc3c(C)c(C)c(=O)oc3c2)n1` [Example 50, 3,4-Dimethyl-7-(3-methyl-1,2,4-oxadiazol-5-yl)-methoxycoumarin], the IC50 in experiment [2] is roughly 4 µM. For the same compound, in experiment [1], the “IC50 ratio MAO A / MAO B” value is given as ~ 930 and the IC50 turned out to be 0.0043 µM.
For `Cc1c(C)c2ccc(OCc3cc(C4CC4)no3)cc2oc1=O` [Example 51, 7-(3-Cyclopropylisoxazol-5-yl)-methoxy-3,4-dimethylcoumarin] the same measures were greater than 10 µM, greater than 12500 and 0.0008 µM.
For `Cc1c(Cl)c(=O)oc2cc(OCc3cc(C(C)C)n(C)n3)ccc12` [Example 54, 3-Chloro-7-(5-isopropyl-1-methylpyrazol-3yl)-methoxy-4-methylcoumarin] the same measures were greater than 10 µM, greater than 6700 and 0.0015 µM.
For `CC(C)c1cc(COc2ccc3c4c(c(=O)oc3c2)CCCC4)nn1C` [Example 55, 7-(5-Isopropyl-1-methylpyrazol-3-yl)-methoxy-3,4-tetramethylenecoumarin] the same measures were greater than 10 µM, greater than 1000 and 0.01 µM.
`Cc1c(C)c2ccc(OCc3cc(C4CC4)on3)cc2oc1=O` [Example 58, 7-(5-Cyclopropylisoxazol-3-yl)-methoxy-3,4-dimethylcoumarin]: the IC50 in experiment [2] is roughly 7 µM. In addition, in experiment [1], the “IC50 ratio MAO A / MAO B” value is on record as ~ 8300 and the IC50 was 0.00084 µM.
